According to patent US8067628B2 (priority 2008, dated 2011):
Like-named read-outs stand apart in the source and are kept apart here.

Legend:
[1] = system: line K562 cells of human erythroblast leukemia; assay: Apoptotic activity, caspase-3/-7 FLICA (FAM-DEVD-FMK) flow cytometry; type: cell-based; conditions: incubation 75 hours
Procedure: A method for determining activity of caspases is based on the use of fluorochromic inhibitors of caspases (FLICA). These inhibitors are capable of penetrating into a cell while not being cytotoxic. Within the cell FLICA-inhibitor is covalently bound to active caspase.
The freeze-dried reagent FAM-DEVD-FMK for determining caspase-3 and caspase-7 was experimentally used to test apoptotic cells. When FAM-DEVD-FMK is added to a cellular population of cells, it penetrates into each cell wherein covalent binding thereof to a large subunit of an active caspase heterodimer occurs and thus, it inhibits enzymatic activity. The reagent covalently bound to the enzyme remains inside the cell. […]
Upon termination of incubation term, the cells were centrifuged for 5 minutes at 1,200 rpm at room temperature (RT). […] Sample aliquots of induced and non-induced cells were taken, 2 μl reagent propidium iodide (PI) ready for use were added and the mixture was incubated at RT for 10 minutes to stain dead cells.
Fluorescence of all cell specimens was analyzed on a liquid citometer Backton Dikenson Fascaliber using a laser with 488 nm wavelength. […] In a left lower quadrant live cells were determined; in a right lower quadrant positive FLICA cells (FLICA+) were determined; in a left upper quadrant stained PI cells were determined, and in a right upper quadrant stained PI and FLICA+ cells were determined. […]

[2] = NO-donor activity, sensor electrode amiNO-700 in water; conditions: aerobic aqueous solutions; for spontaneous NO generation: 25° C., no chemo-, photo- or enzymatic activation; for duration of NO release: compared with binuclear nitrosyl iron complexes with aromatic thiolyls
Procedure: The sensor electrode “amiNO-700” of the system “inNO Nitric Oxide Measuring System” (Innovative Instruments, Inc., Tampa, Fla., USA) was used to determine NO generated by the complexes I and II in water. NO concentration was recorded for ˜1,600 seconds (with a step of 0.2 seconds) with concentration of NO donor (0.1 μmol). A standard aqueous solution of NaNO2 (100 μmol) to which a mixture of 0.12M KCl and 2 ml 1M H2SO4 in 18 ml water was added was used to calibrate the electrochemical sensor. All the experiments were carried out in aerobic solutions at temperature 25° C. pH of solutions was measured using the membrane pH-meter “HI 8314” (HANNA Instruments, Germany).

[3] = system: line K562 human erythroblastic leukemia and A549 non-small cell lung cancer cells; assay: Cytotoxicity, MTT-test on human cancer cells in vitro; type: cell-based
Procedure: Cells of line K562 human erythroblastic leukemia and A549 non-small cell lung cancer were used as the study object. The cells were grown in the RMPI1640 medium comprising 10% fetal bovine serum at 37° C., 5% CO2 and 100% humidity.
The cytotoxic activity testing was carried out by the standard MTT-test using 96-well plates. Seeding density of cells was 5,000 cells in a well. The cells K562 and A549 were incubated with the complexes I and II at concentrations 1 μM, 10 μM or 100 μM for 72 hours.
MTT-test is based on the capability of dehydrogenases of live cells to reduce unstained MTT-reagent to the blue crystals of formazan crystals soluble in dimethylsulfoxide (DMSO). The optic absorption of stained DMSO solutions was measured on an automated counter. The cytotoxic activity was assessed in percent by the survival of the cells and calculated according to the formula: (mean value of optic absorption in test samples/mean absorption in the control)×100. IC50 was determined by a “dose-effect” curve.

[4] = type: physicochemical
Procedure: Distilled water used in the synthesis required preliminary preparation to remove oxygen dissolved therein. To this end, a flow of inert gas (argon or nitrogen) was passed through a flask with distilled water for 30 minutes. 0.84 grams (3 mmol) iron sulphate heptahydrate were dissolved in 12 ml prepared distilled water. To this solution, 0.40 g (3.5 mmol) cystamine hydrochloride dissolved in 8 ml water was added to this solution. Nitrogen monoxide flow prepared according to the technique [Yu. V. Karyakin and I. I. Angeov. Chistiye khimicheskiye veshchestva (Pure chemical substances), Moscow: Khimiya publishing house, 1974, 23] was passed through the prepared solution for 1 to 1.5 hours at ˜40° C. until crystals were formed in the solution. Reaction mixture was then allowed to stand at 6 to 8° C. for 15 to 20 hrs; a formed brown-red fine crystalline precipitate was filtered off and dried in air for 24 hours. Yield was […] (16.5%).
Di-μ-penicillamine-tetranitrosyl di-iron sulphate (Fe2S3N6C10H32O17) (II) was prepared by reacting iron sulphate (II) with D-penicillamine in a ratio 1:3. The reaction was carried out using a standard vacuum line and Shlenk's technology under nitrogen at room temperature. Oxygen was preliminary removed from water using the method of triplicate freezing and pumping off under vacuum. […]

Substance | cells in apoptosis [1] | initiation of caspase 3 and 7 activity / induction of apoptosis ([1]; concentration 50 μl) | spontaneous NO generation [2] | duration of NO release [2] | IC50 [3] | stability of polycrystals in air [4] | IC50 ([3]; MTT-test, 72 hours, K562 and A549 cells (cell line of the value not stated), read-out: IC50 (cytotoxic activity, cell survival)) | stability of product in the absence of inert atmosphere [4]
Di-μ-cystamine tetranitrosyl di-iron sulphate [complex I] | 77% | exhibited capability of initiating caspase 3 and 7 activity | generate NO in aerobic aqueous solutions | prolonged release of NQ | 50 µM | remain stable in air at room temperature for a rather long time | – | –
Di-μ-penicillamine-tetranitrosyl di-iron sulphate [complex II] | – | – | generate NO in aerobic aqueous solutions | prolonged release of NQ | – | – | 100 µM | stable in the absence of inert atmosphere for a long time
